According to PubChem BioAssay (NCI):
Where “and” joins values, the source holds several entries; their conditions need not be identical. Identical values can stand only once.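 Interpolation was linear, between the two tested concentrations surrounding the appropriate level; five concentrations were tested over 48 hours in 96-well plates. Here, GI50 denotes the concentration required for 50% inhibition of growth. The concentration for full growth arrest is given as TGI.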 *1 amine or outer side, *2 acyl side, *3 side chain or, on linkers, in order; H or OH if unused. Where a SMILES comes first, the peptide text is derived from it. Bridges are numbered along the chain shown (N, C = ends). [ ]: non-standard residue; d: D form. ξ: configuration not given here. X4 = CCC(C)C(N[*:1])C(O)CC(=O)O[C@H](C(=O)C(C)C(=O)[*:2])C(C)C; NMeY = CN[C@@H](Cc1ccc(O)cc1)C(=O)O; ξNMeL = CNC(CC(C)C)C(=O)O; ξT = CC(O)C(N)C(=O)O

Key:
Assay in all cases: NCI tumour cell line growth inhibition, 48 h
[1] = test system: BT-549 breast
[2] = test system: OVCAR-3 ovarian
[3] = test system: TK-10 renal
[4] = test system: HL-60(TB) leukemia
[5] = test system: SK-MEL-2 melanoma
[6] = test system: OVCAR-5 ovarian
[7] = test system: SW-620 colon
[8] = test system: PC-3 prostate
[9] = test system: KM12 colon
[10] = test system: HS 578T breast

Row | Structure (SMILES) | TGI [1] [µM] | TGI [2] [µM] | TGI [3] | TGI [4] | TGI [5] [µM] | TGI [6] [µM] | TGI [7] | TGI [8] [µM] | TGI [9] [µM] | TGI [10] [µM] | GI50 [1] [µM] | GI50 [2] [µM] | GI50 [3] [µM] | GI50 [10] [µM] | GI50 [4] [µM] | GI50 [5] [µM] | GI50 [6] [µM] | GI50 [8] [µM] | GI50 [9] [µM]
1 | O=C(N=Nc1ccccc1Br)NNc1ccccc1Br | > 100 | > 100 | > 100 µM | 86.7 µM | > 100 | > 100 | > 100 µM | > 100 |  |  |  |  |  |  |  |  |  |  | 
2 | O=C(NNC(=S)Nc1ccccc1)c1csc(NC(=S)NC2CCCCC2)n1 | > 100 | > 100 | > 100 µM | > 100 µM | > 100 | > 100 | > 100 µM | > 100 | > 100 |  |  |  |  |  |  |  |  |  | 
3 | COc1ccc(-c2c(C#N)c(-c3ccccc3)n(NS(=O)(=O)c3ccccc3)c(=O)c2C#N)cc1 | > 100 |  | > 100 µM | > 100 µM | > 100 | > 100 | > 100 µM | > 100 | > 100 | > 100 |  |  |  |  |  |  |  |  | 
4 | CSCCC(NC(=O)OC(C)(C)C)C(=O)NCCNc1ccc(NCCNC(=O)C(CCSC)NC(=O)OC(C)(C)C)c2c1C(=O)c1ccccc1C2=O (stereo not given) | 9.59 | 15.6 | 15.1 µM |  | 35.9 | 17.2 | 7.3 µM | 17.7 | > 63.6 | 31.2 |  |  |  |  |  |  |  |  | 
5 | COC(OC)C(O)C1OC=CC1n1cnc2c(N)ncnc21 (stereo not given) | > 100 | > 100 | > 100 µM |  | > 100 |  | > 100 µM | > 100 | > 100 | > 100 |  |  |  |  |  |  |  |  | 
6 | O=C1OS2(OCc3cccc4cccc2c34)c2ccccc21 (stereo not given) | > 100 | > 100 | > 100 µM | > 100 µM | > 100 | > 100 | > 100 µM | > 100 | > 100 |  |  |  |  |  |  |  |  |  | 
7 | C/C=C/[C@H]1O[C@@](OC)([C@@H](C)[C@H](O)[C@H](C)[C@H]2OC(=O)/C(OC)=C/C(C)=C/[C@@H](C)[C@@H](O)[C@@H](C)[C@@H](O)[C@H](C)C/C(C)=C/C=C/[C@@H]2OC)CC(OC2CC(O)C(OC(N)=O)C(C)O2)[C@@H]1C (stereo not given in full) | 17.6 | 10.1 | 23.3 µM |  | 1.15 | 17 | 4.8 µM | 6.09 | 12.7 | 17.9 |  |  |  |  |  |  |  |  | 
8 | COC(=O)c1cncc2c1CC1C3(C(=O)OC)C=NC(C4C(CO)=CCC43)C21C (stereo not given) |  |  | > 100 µM | > 100 µM | > 100 | > 100 | > 100 µM | > 100 | > 100 | > 100 |  |  |  |  |  |  |  |  | 
9 | CCC(C)C1NC(=O)C(NC(=O)C(CC(C)C)N(C)C(=O)[C@@H]2CCCN2)C(C)OC(=O)[C@H](Cc2ccc(OC)cc2)N(C)C(=O)[C@@H]2CCCN2C(=O)[C@H](CC(C)C)NC(=O)C(C)C(=O)[C@H](C(C)C)OC(=O)CC1O (stereo not given in full) (H-P[ξNMeL][ξT][X4]LP[NMeY](Me); ester 3-C) | 0.0104 | 0.00686 | 0.027 µM and 0.141 µM | 0.0279 µM and 0.0213 µM |  | 0.0794 | 0.0802 µM and 0.0232 µM | 0.0115 |  |  |  |  |  |  |  |  |  |  | 
10 | O=C1NC(N/N=C\c2ccccc2)=N/C1=C/c1ccc(Cl)cc1 | 49.5 | 39.7 | > 100 µM |  | 82.9 | 94.1 | > 100 µM | 43.4 | 95.5 | 51.4 |  |  |  |  |  |  |  |  | 
11 | NC(CCCCNC(=O)OCc1ccccc1)C(=O)NC(CCCCNC(=O)OCc1ccccc1)C(=O)ON1C(=O)CCC1=O (stereo not given) | > 100 |  | > 100 µM | > 100 µM | > 100 | > 100 | > 100 µM | > 100 | > 100 | > 100 |  |  |  |  |  |  |  |  | 
12 | COc1ccc(OC)c2cc(Cc3ccc(N(C)C)cc3)c(=O)c(Cc3ccc(N(C)C)cc3)cc12 | > 100 | > 100 |  |  |  | > 100 | > 100 µM | > 100 | > 100 | 87.7 |  |  |  |  |  |  |  |  | 
13 | COC(=O)C(COC(=O)/C=C/c1ccc(OC(C)=O)c(OC(C)=O)c1)OC(=O)/C=C/c1ccc(OC(C)=O)c(OC(C)=O)c1 (stereo not given) | 33.5 | 29.9 | 32.8 µM |  | 26 | 36.8 | 23.5 µM | 23.4 | 30.8 | > 100 |  |  |  |  |  |  |  |  | 
14 | NC(=O)CC(Nc1ncc2c(n1)-c1ccccc1OC2)C(=O)O (stereo not given) |  | > 100 | > 100 µM | 36.8 µM | > 100 | > 100 | > 100 µM | > 100 | > 100 | > 100 |  |  |  |  |  |  |  |  | 
15 | O=[As](O)(O)c1cc(N=Nc2ccc(-c3ccc(N=Nc4cc([As](=O)(O)O)c(O)cc4O)cc3)cc2)c(O)cc1O |  | > 78.4 | > 100 µM | > 67.6 µM | > 100 | 97.6 | > 100 µM |  | > 100 |  |  |  |  |  |  |  |  |  | 
16 | CC1=CC[C@@H]2CC[C@]3(C)[C@H](CC[C@@H]4[C@@]5(C)CCCNC(C)(C)[C@@H]5CC[C@]43C)[C@H]2[C@@H]1C | 3.14 | 3.37 | 3.37 µM | 3.5 µM | 3.48 | 3.07 |  | 3.02 |  | 4.04 | 1.66 | 1.91 | 1.81 | 1.79 | 1.7 | 1.81 | 1.67 | 1.58 | 
17 | CSc1nncc(-c2cc3c(c(SC)n2)CCC3)n1 | > 100 | > 100 | > 100 µM | > 100 µM | > 100 | > 100 | > 100 µM | > 100 | > 100 |  |  |  |  |  |  |  |  |  | 
18 | CC[N+](CC)=c1ccc2nc3c(cc(N)c4ccccc43)oc-2c1 | 2.41 |  | 1.14 µM | 0.326 µM | 2.25 | 0.495 |  | 6.94 | 0.666 |  | 1.11 |  | 0.489 |  | 0.134 | 0.968 | 0.24 | 0.567 | 0.247
19 | CN1C2CC(=O)CC1[C@@H]1OC(c3ccccc3)O[C@H]21 (stereo not given in full) | > 100 | > 100 | > 100 µM | > 100 µM | > 100 |  | > 100 µM | > 100 | > 100 | > 100 |  |  |  |  |  |  |  |  | 
20 | CCOC(=O)C(C(=O)Cc1ccccc1)c1ccccc1 (stereo not given) |  | > 100 | > 100 µM | > 100 µM | > 100 | > 100 | > 100 µM |  | > 100 |  |  |  |  |  |  |  |  |  | 
21 | COc1cc(C2C3=C(COC3=O)OC(C)(C)Oc3cc4c(cc32)OCO4)cc(OC)c1OC (stereo not given) | > 100 |  | > 100 µM | 1.26 µM | 70.1 | > 100 | > 100 µM | > 100 | 14.8 | > 100 |  |  |  |  |  |  |  |  | 
